Patent US20240317866A1, “Use of Anti-EGFR/Anti-Met Antibody to Treat Gastric or Esophageal Cancer” (Janssen Biotech, Inc., priority 2022, published 2024)

Columns and labels:
Assay type in all cases: in vivo, BALB/c nude mice
[1] = tested on: GA0046 gastric PDX; experiment: Gastric PDX model GA0046, tumor growth inhibition
[2] = tested on: GA0152 gastric PDX; experiment: Gastric PDX model GA0152, tumor growth inhibition; conditions: amivantamab 10 mg/kg i.p. BIW, 5-FU 10 mg/kg i.p. QD 5 days/week, cisplatin 4 mg/kg i.p. QW, paclitaxel 15 mg/kg i.v. QW, vs isotype control
Description: (§1) Tumor fragments from stock tumor bearing mice were harvested and inoculated into BALB/c nude mice. Each mouse was inoculated subcutaneously in the right flank with indicated tumor fragments (2-3 mm in diameter) for tumor development.
(§2) After establishment of palpable lesions, the tumor growth was measured twice weekly. Once the mean tumor volume reached approximate 150 mm^3, animals were randomly allocated to relevant study groups with 8 mice per group. The randomization was performed according to the tumor size of each group, and the day of randomization was denoted as Day0. The treatments were started on the same day of randomization according to the dosing regimen in Table 18 where appropriate.
(§3) The study endpoints were to compare the tumor growth in each group at the end of treatments, and the subsequent tumor outgrowth after dosing stopped. The tumor size was measured twice weekly in two dimensions using a caliper, and the tumor volume was expressed in mm3 using the formula V=0.5×L×W^2, where V was tumor volume, L was tumor length (longest tumor dimension) and W was tumor width (longest tumor dimension perpendicular to L).
(§4) Tumor growth inhibition (TGI %) was an indication of anti-tumor activities, and calculated as TGI %=(1−(T−T0)/(C−C0))×100%, T and C were the mean tumor volume (TV) of treated and control groups, respectively on the day when mean TV of control group were terminated per study design.

[3] = tested on: GA3121 gastric PDX; experiment: Gastric PDX model GA3121, tumor growth inhibition; conditions: amivantamab 10 mg/kg i.p. BIW, paclitaxel 10 mg/kg i.v. QW, vs isotype control
Description: as §1, §2
as §3, with “L). […]” for “L).”

[4] = tested on: GA0075 gastric PDX; experiment: Gastric PDX model GA0075, tumor growth inhibition; conditions: amivantamab 10 mg/kg i.p. BIW, 5-FU 10 mg/kg i.p. QD 5 days/week, cisplatin 4 mg/kg i.p. QW, paclitaxel 15 mg/kg i.v. QW, vs isotype control, Day28
Description: as §1, §2, §3, §4

SMILES | effect on tumor growth (in words) ([1]; amivantamab 10 mg/kg BIW single agent, capmatinib 10 mg/kg BID) | TGI% ([1]; amivantamab 10 mg/kg i.p. BIW, capmatinib 10 mg/kg p.o. BID, vs isotype control, Day28) [%] | TGI% [2] [%] | TGI% ([2]; listed as paxlitaxel) [%] | TGI% [3] [%] | TGI% [4] [%]
CNC(=O)c1ccc(-c2cnc3ncc(Cc4ccc5ncccc5c4)n3n2)cc1F [capmatinib, reference compound] | no effect on tumor growth | 5.93 | – | – | – | –
CC(=O)O[C@H]1C(=O)[C@@]2(C)[C@H]([C@H](OC(=O)c3ccccc3)[C@]3(O)C[C@H](OC(=O)[C@H](O)[C@@H](NC(=O)c4ccccc4)c4ccccc4)C(C)=C1C3(C)C)[C@]1(OC(C)=O)CO[C@@H]1C[C@@H]2O [paclitaxel, reference compound] | – | – | 27.29 | 27.29 | −12.99 | 66.09
